These results are taken from patent publication US20190169574A1, “IN VITRO PRODUCTION OF PANCREATIC BETA CELLS” (NESTEC S.A., priority 2016, published 2019).

The test system of data set [1] is iPSC-derived maturing beta cells. As to the kind of experiment: In vitro glucose-stimulated insulin secretion test. The data set is classed as cell-based. The procedure:
FIG. 2: Exposure of PE cells to Isx9 induces glucose response properties to the cells. A: Scheme of the protocol setup. Maturing beta cells have been exposed to DMSO or Isx9 (6 μM) for 13 days, 7 days or 2 days during the maturation step. B: In vitro glucose-stimulated Insulin secretion test have been performed to measure secretion of Insulin in each condition (No Isx9, 13 days Isx9, 7 days Isx9 or 2 days Isx9) induced by low glucose concentration (2 mM) or high glucose concentration (20 mM). The stimulation index of Insulin secretion is determined between the 2 concentrations of glucose on the y axis. FIG. 4: Exposure of PE cells to Isx9 in two-steps increases glucose response properties to the cells. A: Scheme of the protocol setup. In a first step, PE cells have been exposed to DMSO (condition 1) or Isx9 (6 μM) for 2-6 days (condition 2). In a second step, maturing beta cells have been exposed to DMSO (condition 3) or Isx9 (6 uM) for 10 days (condition 4). B: In vitro glucose-stimulated Insulin secretion test have been performed to measure secretion of Insulin in each condition, induced by low glucose concentration (2 mM) or high glucose concentration (20 mM). The stimulation index of Insulin secretion is determined between the 2 concentrations of glucose on they axis. In order from left to right: NKX6.1, Pdx1, NGN3, NKX2-2, NeuroD1. Frozen PE cells were thawed and cultured for 1 day in I medium containing 10 U/mL DNase I in ULA 6WP flat-bottomed plates. The PE cells were subsequently transferred to S3 BASE medium (MCDB131, 8 mM D-glucose, 1.23 g/L NaHCO3, 2% FFA BSA, 1:200 ITX-X, 2 mM glutamax, 100×PS and 0.25 mM vitamin C) containing 50 ng/mL KGF, 0.25 μM Sant1, 100 nM RA and 10 μM Y and cultured for a further 2 days. The resulting cells were then cultured for 4 days using an air-liquid interface culture protocol in Transwell plates. […]

Another data set concerns MAFA. In words: MAFA detection by immunohistochemistry. Type of data set: cell-based. Conditions: as early as at D9 of differentiation; FIG. 7. The source says:
(§1) Moreover, culturing the PE cells in suspension or in transwell culture systems in presence of Isx9 is showing the same effect of improved glucose-dependent insulin response as shown in FIG. 5 and FIG. 6. […] Both markers are critical for mediating the response of insulin secretion mediated by glucose. The expression of MAFA can also be unprecedently detected by immunohistochemistry as early as at D9 of differentiation as shown in FIG. 7.

In another data set the test system is maturing beta cells. In words: Analysis of the cell composition of the maturing beta cells (insulin positive cells). The following applies: Isx9 added. The data set is classed as cell-based.
Description: FIG. 7: FACS sorting of cells
as §1

In another data set the test system is PE cells. In words: Dose response test: toxicity and morphology of PE cell aggregates in culture with increasing doses of Isx9. The following applies: FIG. 1. Type of data set: cell-based. The procedure: FIG. 1: Morphological analysis of PE cells in culture with increasing doses of Isx9. PE cells were cultured in suspension without Isx9 (DMSO control carrier), and with increasing concentrations of Isx9 (6 μM, 12 μM, 24 μM, 48 μM and 60 μM) for 4 days and 8 days. 5× and 10× magnification pictures have been collected for each condition and time point.
Dose response tests have been performed to determine toxicity of Isx9 and the optimal concentration of Isx9 to be tested for beta cell differentiation in vitro. High concentrations of Isx9 (from 24 μM up to 60 μM) appears to be toxic as the aggregates of PE cells become cystic after 8 days in culture as shown in FIG. 1. In contrast, the morphology of the aggregates of PE cells is unchanged as compared to the control DMSO condition when using 6 and 12 μM of Isx9. In order to maintain physiological condition, a concentration of 6 μM of Isx9 has been used for the entire protocol. Exposure of maturing beta cells to Isx9 for 13 days is increasing the glucose-stimulated insulin secretion of the cells as compared to the control DMSO condition (FIG. 2). This effect is correlated with the duration of exposure to Isx9 at 6 uM. […] Isx9 induces an increase in RNA expression levels of endocrine markers such as Ngn3, but also beta cell markers as NeuroD1 and Nkx2.2.

Another data set relates to adult neural stem cell. The following applies: in vitro and in vivo; cited from earlier work.
The subject of data set [2] is PE cells / in vitro maturing beta cells. As to the kind of experiment: RNA / gene expression levels of endocrine progenitor and beta cell markers. The data set is classed as cell-based. The method, then:
FIG. 3: Early exposure of PE cells to Isx9 increases gene expression levels of endocrine progenitors as well as mature beta cell markers. A: Scheme of the protocol setup. B: Early exposure of PE cells to Isx9 (6 μM) for 2-6 days (condition 3) increases RNA expression levels of Ngn3, Nkx2.2 and NeuroD1 at D13 of differentiation, as compared to DMSO exposure (condition 1). The increase of Nkx2.2 RNA expression levels is maintained at D23 of differentiation when in vitro maturing beta cells are exposed to Isx9 (6 uM) in a two-step protocol (condition 4). Controls are represented by primary human islets. First bar of each pair is 2 mM and second bar is at 20 mM. Frozen PE cells were thawed and cultured for 1 day in I medium containing 10 U/mL DNase I in ULA 6WP flat-bottomed plates. The PE cells were subsequently transferred to S3 BASE medium (MCDB131, 8 mM D-glucose, 1.23 g/L NaHCO3, 2% FFA BSA, 1:200 ITX-X, 2 mM glutamax, 100×PS and 0.25 mM vitamin C) containing 50 ng/mL KGF, 0.25 μM Sant1, 100 nM RA and 10 μM Y and cultured for a further 2 days. The resulting cells were then cultured for 4 days using an air-liquid interface culture protocol in Transwell plates. The culture was carried out in S5 BASE medium (MCDB131, 20 mM D-glucose, 1.754 g/L NaHCO3, 2% FFA BSA, 1:200 ITX-X, 2 mM glutamax, 100×PS, 0.25 mM vitamin C and […] heparin) containing 100 nM RA, 1 μM XXI, 0.25 μM Sant1, 10 μM Alk5i II, 1 μM T3, 20 ng/mL beta-cellulin, 10 μM Y and 6 μM isoxazole 9 (ISX-9). Subsequently, the medium was exchanged for S5 BASE medium containing 25 nM RA, 1 μM XXI, 10 μM Alk5i II, 1 μM T3, 20 ng/mL beta-cellulin and 10 μM Y and the cells were cultured for a further 3 days. ISX-9 was not present in this medium. Finally, the medium was exchanged for S6 BASE medium (CMRL 1066, 10% FBS and 100×PS) containing 10 μM Alk5i II, 1 μM T3 and 10 μM Y and the cells were cultured for a further 15 days. ISX-9 was added to this medium at a concentration of 6 μM for the final 14 days of culture (i.e. the first day of culture in this step was carried out in the absence of ISX-9).

In a further data set the test system is human cadaveric islets. The following applies: islets that produced low levels of insulin due to prolonged culture; cited from earlier work.
The mark [3] stands for this setting: Isx9 6 μM early exposure of PE cells for 2-6 days vs DMSO, D13 of differentiation, FIG. 3.

For the molecule `O=C(NC1CC1)c1cc(-c2cccs2)on1` [Isx9, Isoxazole 9], in data set [1] (Isx9 6 μM, first step 2-6 days at PE stage, second step 10 days, FIG. 3 and FIG. 4), the “effect of Isx9 on glucose response when added in a first step at the PE cell stage (two-step protocol)” value is reported as “reinforced”. In data set [1] (PE cells cultured in suspension or in transwell culture systems in presence of Isx9, FIG. 5 and FIG. 6), the glucose-dependent insulin response entry is reported as “improved”. Moreover, the “glucose-stimulated insulin secretion of the cells as compared to the control DMSO condition” value in data set [1] (maturing beta cells exposed to Isx9 6 μM for 13 days, 2 mM vs 20 mM glucose, effect correlated with duration of exposure, FIG. 2) was “increasing”. For the same molecule, the “expression of MAFA by immunohistochemistry” value in the data set with MAFA is recorded as “detected”. In the data set on maturing beta cells, the “number or quantity of insulin positive cells as compared to DMSO” value was “does not receal an increase”. Also, the “morphology of the aggregates of PE cells as compared to the control DMSO condition” value with PE cells (6 and 12 μM of Isx9) is “unchanged”. The “toxicity (aggregates of PE cells become cystic)” value with PE cells (high concentrations, from 24 μM up to 60 μM, after 8 days in culture) is “toxic”. Also, the “adult neural stem cell differentiation” value in the data set with adult neural stem cell is reported as “induce”. For the same molecule, in data set [2] (setting [3]), the “RNA expression level of NeuroD1” value is reported as “increases”, the “RNA expression level of Ngn3” value is “increases” and the “RNA expression level of Nkx2.2” value was “increases”. Also, the “increase of Nkx2.2 RNA expression levels at D23” value in data set [2] (Isx9 6 uM two-step protocol (condition 4), D23 of differentiation, FIG. 3) is recorded as “maintained”. In data set [2] (in presence of Isx9), the “MAFA gene expression level” value is reported as “increase” and the “PCSK1 gene expression level” value is “increase”. In addition, in the data set with human cadaveric islets, the “expression and secretion of insulin” value is “increase”.
